Values of other authors, collected in US20140256765A1, “TRANSMUCOSAL DRUG DELIVERY SYSTEM” (priority 2013, published 2014).

Experiments:
[1] = at a pH of 6.8
[2] = in vivo

CN1CCCC1c1cccnc1 (centres unmarked) [nicotine]
nicotine in the free base form [1]: about 10% | time to peak of plasma nicotine levels [2]: about 10 minutes
